According to PubChem BioAssay (NCI):
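Method: 48-hour compound exposure of cells in 96-well plates, five concentrations, linear interpolation of endpoints. The concentration for full growth arrest is given as TGI.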

What was measured:
Experiment in all cases: NCI tumour cell line growth inhibition, 48 h
[1] = system: MDA-MB-231 breast
[2] = system: NCI-H460 lung
[3] = system: HCT-116 colon
[4] = system: MOLT-4 leukemia
[5] = system: NCI-H226 lung
[6] = system: PC-3 prostate
[7] = system: NCI-H23 lung
[8] = system: HT29 colon
[9] = system: UACC-257 melanoma
[10] = system: T-47D breast
[11] = system: HS 578T breast
[12] = system: MDA-MB-435
[13] = system: SK-OV-3 ovarian
[14] = system: HOP-92 NSCLC
[15] = system: SK-MEL-5 melanoma
[16] = system: CAKI-1 renal
[17] = system: OVCAR-4 ovarian
[18] = system: IGROV1 ovarian
[19] = system: MDA-N
[20] = system: SK-MEL-2 melanoma
[21] = system: HCT-15 colon
[22] = system: KM12 colon
[23] = system: SF-539 CNS
[24] = system: K-562 leukemia
[25] = system: SR leukemia
[26] = system: NCI-H522 lung
[27] = system: RPMI-8226 leukemia
[28] = system: OVCAR-5 ovarian
[29] = system: U251 CNS
[30] = system: SW-620 colon
[31] = system: RXF 393 renal
[32] = system: MCF7 breast
[33] = system: BT-549 breast
[34] = system: SN12C renal
[35] = system: SNB-75 CNS
[36] = system: 786-0 renal
[37] = system: DU-145 prostate
[38] = system: MALME-3M melanoma
[39] = system: UACC-62 melanoma
[40] = system: M14 melanoma
[41] = system: SF-268 CNS
[42] = system: EKVX NSCLC
[43] = system: A549 NSCLC
[44] = system: NCI/ADR-RES ovarian
[45] = system: OVCAR-8 ovarian
[46] = system: ACHN renal
[47] = system: TK-10 renal
[48] = system: SF-295 CNS
[49] = system: COLO 205 colon
[50] = system: CCRF-CEM leukemia
[51] = system: OVCAR-3 ovarian
[52] = system: A498 renal
[53] = system: SK-MEL-28 melanoma
[54] = system: UO-31 renal
[55] = system: LOX IMVI melanoma
[56] = system: HL-60(TB) leukemia
[57] = system: HOP-62 NSCLC
[58] = system: HCC-2998 colon
[59] = system: SNB-19 CNS

With `COC(CNC(=O)C(C)NC(=O)C(C)NC(=O)c1ccccc1)OC` (stereo not given) the TGI [1] was > 100 µM, the TGI [2] was > 100 µM and the TGI [3] was > 100 µM. For the same compound, the TGI [4] was > 100 µM, the TGI [5] was > 100 µM and the TGI [6] was > 100 µM. The TGI [7] was > 100 µM, the TGI [8] was > 100 µM and the TGI [9] was > 100 µM. For the same compound, the TGI [10] was > 100 µM, the TGI [11] was > 100 µM and the TGI [12] was > 100 µM. For the same compound, the TGI [13] was > 100 µM, the TGI [14] was > 100 µM and the TGI [15] was > 100 µM. For the same compound, the TGI [16] was > 100 µM, the TGI [17] was > 100 µM and the TGI [18] was > 100 µM. The TGI [19] was > 100 µM, the TGI [20] was > 100 µM and the TGI [21] was > 100 µM. The TGI [22] was > 100 µM, the TGI [23] was > 100 µM and the TGI [24] was > 100 µM. For the same compound, the TGI [25] was > 100 µM, the TGI [26] was > 100 µM and the TGI [27] was > 100 µM. For the same compound, the TGI [28] was > 100 µM, the TGI [29] was > 100 µM and the TGI [30] was > 100 µM. For the same compound, the TGI [31] was > 100 µM, the TGI [32] was > 100 µM and the TGI [33] was > 100 µM. The TGI [34] was > 100 µM, the TGI [35] was > 100 µM and the TGI [36] was > 100 µM. The TGI [37] was > 100 µM, the TGI [38] was > 100 µM and the TGI [39] was > 100 µM. For the same compound, the TGI [40] was > 100 µM, the TGI [41] was > 100 µM and the TGI [42] was > 100 µM. The TGI [43] was > 100 µM, the TGI [44] was > 100 µM and the TGI [45] was > 100 µM. For the same compound, the TGI [46] was > 100 µM, the TGI [47] was > 100 µM and the TGI [48] was > 100 µM. For the same compound, the TGI [49] was > 100 µM and the TGI [50] was > 100 µM.
For `COC(=O)[C@]1(c2cc3ccccc3[nH]2)CC2CN(CC(=O)N(C)OC)C1C1OC(C)(C)OC21` (stereo not given in full), the TGI [51] was > 100 µM, the TGI [1] was > 100 µM and the TGI [2] was > 100 µM. The TGI [3] was > 100 µM, the TGI [4] was 49.9 µM and the TGI [5] was > 100 µM. The TGI [6] was > 100 µM, the TGI [7] was > 100 µM and the TGI [8] was > 100 µM. For the same compound, the TGI [9] was > 100 µM, the TGI [10] was > 100 µM and the TGI [52] was 91.7 µM. The TGI [11] was > 100 µM, the TGI [12] was > 100 µM and the TGI [13] was > 100 µM. For the same compound, the TGI [53] was > 100 µM, the TGI [14] was > 100 µM and the TGI [15] was > 100 µM. The TGI [16] was > 100 µM, the TGI [17] was > 100 µM and the TGI [18] was > 100 µM. For the same compound, the TGI [19] was > 100 µM, the TGI [20] was > 100 µM and the TGI [21] was > 100 µM. The TGI [22] was > 100 µM, the TGI [23] was > 100 µM and the TGI [54] was > 100 µM. For the same compound, the TGI [55] was > 100 µM, the TGI [24] was > 100 µM and the TGI [56] was 51.4 µM. The TGI [26] was > 100 µM, the TGI [27] was 74 µM and the TGI [28] was > 100 µM. The TGI [29] was > 100 µM, the TGI [30] was > 100 µM and the TGI [57] was > 100 µM. For the same compound, the TGI [31] was > 100 µM, the TGI [32] was > 100 µM and the TGI [33] was > 100 µM. The TGI [34] was > 100 µM, the TGI [35] was > 100 µM and the TGI [36] was > 100 µM. The TGI [58] was > 100 µM, the TGI [59] was > 100 µM and the TGI [37] was > 100 µM. For the same compound, the TGI [38] was > 100 µM, the TGI [39] was > 100 µM and the TGI [40] was > 100 µM. The TGI [41] was > 100 µM, the TGI [42] was > 100 µM and the TGI [43] was > 100 µM. For the same compound, the TGI [44] was > 100 µM, the TGI [45] was > 100 µM and the TGI [46] was > 100 µM. For the same compound, the TGI [47] was > 100 µM, the TGI [48] was > 100 µM and the TGI [49] was > 100 µM. The TGI [50] was > 100 µM.
`CC1=CC(C)C(O)C(C)/C=C/C(O)C/C=C(/C)C(=O)CC(O)C(C)\C=C/C=C/C=C\C(=O)NC2=C(O)c3cc(C)c(O)c(c3C(=O)C2=O)C1=O` (stereo not given) was tested, and the TGI [51] was > 100 µM, the TGI [1] was > 100 µM and the TGI [2] was > 100 µM. For the same compound, the TGI [3] was > 100 µM, the TGI [4] was > 100 µM and the TGI [6] was > 100 µM. The TGI [7] was > 100 µM, the TGI [8] was > 100 µM and the TGI [9] was > 100 µM. The TGI [10] was > 100 µM, the TGI [11] was > 100 µM and the TGI [12] was > 100 µM. The TGI [53] was > 100 µM, the TGI [14] was > 100 µM and the TGI [15] was > 100 µM. The TGI [16] was > 100 µM, the TGI [17] was > 100 µM and the TGI [18] was > 100 µM. For the same compound, the TGI [19] was > 100 µM, the TGI [20] was > 100 µM and the TGI [21] was > 100 µM. The TGI [22] was > 100 µM, the TGI [23] was > 100 µM and the TGI [54] was > 100 µM. The TGI [55] was > 100 µM, the TGI [25] was > 100 µM and the TGI [56] was > 100 µM. The TGI [26] was > 100 µM, the TGI [27] was > 100 µM and the TGI [28] was > 100 µM. The TGI [29] was > 100 µM, the TGI [30] was > 100 µM and the TGI [57] was > 100 µM. The TGI [32] was 65 µM, the TGI [33] was > 100 µM and the TGI [34] was > 100 µM. For the same compound, the TGI [35] was > 100 µM, the TGI [36] was > 100 µM and the TGI [58] was > 100 µM. The TGI [59] was > 100 µM, the TGI [37] was > 100 µM and the TGI [39] was > 100 µM. The TGI [40] was > 100 µM, the TGI [41] was > 100 µM and the TGI [42] was > 100 µM. For the same compound, the TGI [43] was > 100 µM, the TGI [44] was > 100 µM and the TGI [45] was > 100 µM. The TGI [46] was > 100 µM, the TGI [47] was > 100 µM and the TGI [48] was > 100 µM. The TGI [49] was > 100 µM and the TGI [50] was > 100 µM.
With `CC(=O)OC1CC(OC2C(O)CC(OC3C(O)CC(OC4CCC5(C)C(CCC6C5CC(O)C5(C)C(C7=CC(=O)OC7)CCC65O)C4)OC3C)OC2C)OC(C)C1O` (stereo not given) (tested in a mixture with another compound) the TGI [51] was 0.0507 µM, the TGI [1] was 0.518 µM and the TGI [2] was 0.0368 µM. It also gave a TGI [3] of 0.039 µM, a TGI [5] of 0.176 µM and a TGI [6] of 0.123 µM. The TGI [7] was 0.0346 µM, the TGI [8] was 0.0954 µM and the TGI [9] was 0.305 µM. The TGI [10] was 0.41 µM, the TGI [52] was 0.307 µM and the TGI [11] was 0.435 µM. The TGI [12] was 0.357 µM, the TGI [13] was 0.162 µM and the TGI [14] was 0.182 µM. For the same compound, the TGI [15] was 0.0838 µM, the TGI [16] was 0.0818 µM and the TGI [17] was 0.0538 µM. The TGI [18] was 0.176 µM, the TGI [19] was 0.147 µM and the TGI [20] was 0.207 µM. The TGI [21] was 0.107 µM, the TGI [22] was 0.116 µM and the TGI [23] was 0.113 µM. The TGI [54] was 0.169 µM, the TGI [55] was 0.0944 µM and the TGI [24] was 0.0685 µM. For the same compound, the TGI [25] was > 100 µM, the TGI [26] was 0.0275 µM and the TGI [28] was 0.12 µM. For the same compound, the TGI [29] was 0.0801 µM, the TGI [30] was 0.268 µM and the TGI [57] was 0.152 µM. For the same compound, the TGI [31] was 0.0812 µM, the TGI [32] was 0.216 µM and the TGI [33] was 0.201 µM. It also gave a TGI [35] of 0.191 µM, a TGI [36] of 0.13 µM and a TGI [58] of 0.463 µM. For the same compound, the TGI [59] was 0.458 µM, the TGI [37] was 0.0377 µM and the TGI [38] was 0.0479 µM. For the same compound, the TGI [39] was 0.128 µM, the TGI [40] was 0.231 µM and the TGI [41] was 0.119 µM. It also gave a TGI [42] of 0.0381 µM, a TGI [43] of 0.0259 µM and a TGI [44] of 0.0732 µM. It also gave a TGI [45] of 0.129 µM, a TGI [46] of 0.0818 µM and a TGI [47] of 0.114 µM. The TGI [48] was 0.133 µM, the TGI [49] was 0.168 µM and the TGI [50] was > 100 µM.
